Converted amounts (≈) assume the structure as drawn. Where two headings read alike, the source gives them in different places.
Experiments:
[1] = tested on: Taechu sweet persimmon fruits; experiment: 1-DCP spray treatment of Taechu sweet persimmon fruits on the tree, flesh hardness during room temperature storage; assay type: in vivo, sweet persimmon (Taechu variety)
Method: In particular, four sweet persimmon trees of the Taechu variety were selected on October 7th at the Sweet Persimmon Research Institute Orchard located in Jinyeong-eup, Gyeongsangnam-do, and the fruits growing on two of these trees (control group) were treated with a solution containing 0.025% wetting agent (Carba, Farmhannong), and the fruits of the other two trees (treatment group) were sprayed with an aqueous emulsion containing 1 mM 1-DCP and 0.025% wetting agent using a manual sprayer. Fruits in each treatment group were harvested on October 24, and measured/observed for changes in flesh hardness after 7 days and 14 days while being stored at room temperature.

[2] = tested on: banana fruits; experiment: 1-DCP immersion treatment of immature banana fruit followed by ethylene exposure; assay type: in vivo
Method: In particular, immature banana fruits were harvested from a banana farm in Sancheong-gun, Gyeongsangnam-do and transported to the laboratory, and on the same day, the fruits were separated into two groups: the fruits (16) in Group A (control group) were immersed in a 0.025% wetting agent (Carba, FarmHannong) solution not containing 1-DCP, and the fruits (16) in Group B (treatment group) were immersed in a 1 mM 1-DCP aqueous emulsion for 1 second, respectively, to wet the surface with the solution, and then dried at room temperature. Subsequently the next day, half of the fruits (8 each) from groups A and B were divided into two 40 L containers, sealed, and then injected with ethylene gas, thus exposing the fruits to 10 ppm of ethylene for 24 hours. The treated banana fruits were then stored at room temperature and observed for the degree of ripening after 7 days and after 14 days.

[3] = Storage stability of 1-DCP and its cyclodextrin inclusion complex; assay type: physicochemical
[4] = cited from earlier work

Q: With CC(C)(C)CC1=CC1 [1-DCP, 1-(2,2-dimethylpropyl)-cyclopropene] as the compound, how does the flesh hardness ([1]; spray of 1 mM 1-DCP aqueous emulsion with 0.025% wetting agent, after 7 days of storage at room temperature) read?
A: Its flesh hardness is 19.5 N.

Q: What about the “inhibition of ethylene action” value ([1]; spray treatment, 1 mM or less, Taechu fruits) of the same compound?
A: The value was “effectively inhibits ethylene action”.

Q: What about the degree of ripening ([2]; 1 mM 1-DCP aqueous emulsion, immersion for 1 second, 10 ppm ethylene for 24 hours, room temperature storage, observed after 7 and 14 days) of the same compound?
A: The degree of ripening was “maintained a more immature state than the fruits of Group A up to 14 days”.

Q: And the “inhibition of ethylene action” value ([2]; immersion treatment, 1 mM or less, banana fruits)?
A: Its value is “effectively inhibits ethylene action”.

Q: What about the “storage stability (polymerization)” value ([3]; refrigerated conditions) of the same compound?
A: The value was “polymerization occurred within a few days”.

Q: And the storage stability ([3]; room temperature)?
A: The storage stability was “storage at room temperature for more than one day was impossible”.

Q: What about the storage stability ([3]; stored in a −40° C. freezer) of the same compound?
A: Its storage stability is “several months or more”.

Q: For OC[C@H]1O[C@@H]2O[C@H]3[C@H](O)[C@@H](O)[C@@H](O[C@H]4[C@H](O)[C@@H](O)[C@@H](O[C@H]5[C@H](O)[C@@H](O)[C@@H](O[C@H]6[C@H](O)[C@@H](O)[C@@H](O[C@H]7[C@H](O)[C@@H](O)[C@@H](O[C@H]1[C@H](O)[C@H]2O)O[C@@H]7CO)O[C@@H]6CO)O[C@@H]5CO)O[C@@H]4CO)O[C@@H]3CO [a-cyclodextrin, α-cyclodextrin], which solubility in water [4] is on record?
A: The solubility in water was 140 mg/mL (≈ 144 mM).

Q: For OC[C@H]1O[C@@H]2O[C@H]3[C@H](O)[C@@H](O)[C@@H](O[C@H]4[C@H](O)[C@@H](O)[C@@H](O[C@H]5[C@H](O)[C@@H](O)[C@@H](O[C@H]6[C@H](O)[C@@H](O)[C@@H](O[C@H]7[C@H](O)[C@@H](O)[C@@H](O[C@H]8[C@H](O)[C@@H](O)[C@@H](O[C@H]1[C@H](O)[C@H]2O)O[C@@H]8CO)O[C@@H]7CO)O[C@@H]6CO)O[C@@H]5CO)O[C@@H]4CO)O[C@@H]3CO [β-cyclodextrin], which solubility in water ([4]; compared to the alpha type) is on record?
A: The solubility in water was “extremely low solubility in water”.
